Measurements published in US20100249172A1, “9-CHLORO NOSCAPINE AND ITS USE IN TREATING CANCERS, INCLUDING DRUG-RESISTANT CANCERS” (EMORY UNIVERSITY, priority 2007, published 2010).

Experiments:
[1] = system: 1A9 (ovarian cancer cells); assay: Inhibition of cell proliferation; type: cell-based
tubulin = molecular target: T1, tubulin; assay: Tubulin binding assay (fluorescence titration / quenching); design: species or system mammalian; conditions: 2 μM tubulin, 45 min at 37° C., pH 6.8; mean±SD, four experiments; read-out: dissociation constant (Kd) for binding to tubulin
T1 construct: other: 2 μM tubulin, 45 min at 37° C., pH 6.8; mean±SD, four experim
Description: Cell culture reagents were obtained from Mediatech, Cellgro. CEM, a human lymphoblastoid line was provided by Dr. William T. Beck (Cancer Center, University of Illinois at Chicago). MCF-7 cells were maintained in Dulbecco's Modification of Eagle's Medium 1× (DMEM) with 4.5 g/L glucose and L-glutamine (Mediatech, Cellgro) supplemented with 10% fetal bovine serum (Invitrogen, Carlsbad, Calif.) and 1% penicillin/streptomycin (Mediatech, Cellgro). MDA-MB-231 and CEM cells were grown in RPMI-1640 medium supplemented with 10% fetal bovine serum, and 1% penicillin/streptomycin. […]
Fluorescence titration for determining the tubulin binding parameters was performed as described previously. […] The relative intrinsic fluorescence intensity of tubulin was then monitored in a JASCO FP-6500 spectrofluorometer (JASCO, Tokyo, Japan) using a cuvette of 0.3-cm path length, and the excitation wavelength was 295 nm. The fluorescence emission intensity of noscapine and its derivatives at this excitation wavelength was negligible. A 0.3-cm path-length cuvette was used to minimize the inner filter effects caused by the absorbance of these agents at higher concentration ranges. In addition, the inner filter effects were corrected using a formula F corrected ═F observed•antilog [(Aex+Aem)/2], where Aex is the absorbance at the excitation wavelength and Aem is the absorbance at the emission wavelength. […]

[2] = system: CEM/VLB100 (vinblastine-resistant variant); assay: Inhibition of cell proliferation; type: cell-based, human
MCF-7 cells = assay: Cell cycle analysis by flow cytometry (propidium iodide); type: cell-based, human; conditions: for G0/G1 % / G2/M % / S % / Sub-G1 %: mean ± S.E.M.
Description: The flow cytometric evaluation of the cell cycle status was performed as described previously. Briefly, 2×10^6 cells were centrifuged, washed twice with ice-cold PBS, and fixed in 70% ethanol. Tubes containing the cell pellets were stored at 4° C. for at least 24 hours. Cells were then centrifuged at 1000×g for 10 min and the supernatant was discarded. The pellets were washed twice with 5 ml of PBS and then stained with 0.5 ml of propidium iodide (0.1% in 0.6% Triton-X in PBS) and 0.5 ml of RNase A (2 mg/ml) for 45 minutes in dark. Samples were then analyzed on a FACSCalibur flow cytometer (Beckman Coulter Inc., Fullerton, Calif.).
To investigate the precise mechanisms of cell death, the effect of 9-cloro-noscapine and other halogenated noscapine analogs on percent G2/M cells (mitotic index) and percent sub-G1 cells (apoptotic index) was examined as a function of dose and time in MCF-7 cells using fluorescence activated cell sorting (FACS) analysis. The effect of all compounds including noscapine was evaluated at three doses-5 μM, 10 μM and 25 μM for 0, 24, 48 and 72 hours of drug treatment. […] Fluorescently labeled DNA is a good indicator of cell cycle progression and cell death. An unreplicated complement of diploid (2N) DNA cells represents the G1 phase while duplicated tetraploid (4N) DNA cells represent G2 and M phases. Cells in the process of DNA duplication between diploid and tetraploid peaks represent S phase when DNA is being synthesized. Less than diploid DNA appears in populations of dying cells that degrade their DNA to different extents. Treatment of MCF-7 cells with these compounds for 0, 24, 48 and 72 hours led to profound perturbations of the cell cycle profile at 25 μM (FIGS. 3 A-D). […] The distribution of cell population over G0/G1, S, G2/M and sub-G1 phases of the cell cycle for 25 μM concentration is shown in Table 1.

**Q.** What does the source list for COc1ccc2c(c1OC)C(=O)O[C@@H]2[C@H]1c2c(c(Cl)c3c(c2OC)OCO3)CCN1C [9-Cl-nos, (S)-3-((R)-9-chloro-4-methoxy-6-methyl-5,6,7,8-tetrahydro-[1,3]dioxolo[4,5-g]isoquinolin-5-yl)-6,7-dimethoxyisobenzofuran-1(3H)-one]?
**A.** inhibition of cell proliferation (in words) [1]: effectively inhibits cell proliferation; Kd (tubulin): 40 ± 8 µM; inhibition of cell proliferation (in words) [2]: effectively inhibits cell proliferation; G0/G1 % (MCF-7 cells; 25 μM, 0 h): 69 ± 5.6%; G2/M % (MCF-7 cells; 25 μM, 0 h): 20.7 ± 3.4%; S % (MCF-7 cells; 25 μM, 0 h): 7.5 ± 1.6%; Sub-G1 % (MCF-7 cells; 25 μM, 0 h): 1.4 ± 0.5%; G0/G1 % (MCF-7 cells; 25 μM, 24 h): 11.5 ± 2.7%; G2/M % (MCF-7 cells; 25 μM, 24 h): 59.7 ± 5.2%; S % (MCF-7 cells; 25 μM, 24 h): 4.3 ± 1.4%; Sub-G1 % (MCF-7 cells; 25 μM, 24 h): 15.3 ± 2.5%; accumulation of cells in the G2/M phase (in words) (MCF-7 cells; 25 μM, 24 hours): massive accumulation of cells in the G2/M phase; G0/G1 % (MCF-7 cells; 25 μM, 48 h): 8 ± 3.3%; G2/M % (MCF-7 cells; 25 μM, 48 h): 42.4 ± 3.8%; S % (MCF-7 cells; 25 μM, 48 h): 4 ± 1.1%; Sub-G1 % (MCF-7 cells; 25 μM, 48 h): 37.8 ± 3.2%; G0/G1 % (MCF-7 cells; 25 μM, 72 h): 5.9 ± 1.9%; G2/M % (MCF-7 cells; 25 μM, 72 h): 35.3 ± 3.9%; S % (MCF-7 cells; 25 μM, 72 h): 4.1 ± 1.4%; Sub-G1 % (MCF-7 cells; 25 μM, 72 h): 50.2 ± 2.5%; percent sub-G1 cells compared with noscapine (MCF-7 cells; lower doses (5 μM and 10 μM), 72 hours): higher
